Patent US4695590A, “Method for retarding aging” (California Health Technologies, priority 1986, dated 1987)

What was measured:
[1] = test system: lipid hydroperoxides in the skin; type: in vivo, human
Description: FIG. 3 is a graph showing the results of a double blind study set forth in Example 6, wherein a composition containing 2% NDGA by weight was applied topically to the skin of the foreheads of human volunters; and
Turning to FIG. 3, the results of a double-blind time study using a composition containing 2% by weight NDGA can be seen. This composition was the same as the composition set forth in Example 3 with the exception that the percentage of water was reduced to 86.5%. Starting at time zero, 10 milliliters of this cream was vigorously applied topically onto the skin of the forehead of a volunteer. Measurements were taken at different intervals using non-invasive, reflective, near-infrared spectroscopy. The methods of non-invasive, reflective, near infrared spectroscopy used in this example are set forth in detail in R. Lippman, "Rapid in vivo Quantification and Comparision of Hydroperoxides and Oxidized Collagen in Aging Mice, Rabbits and Man", Experimental Gerontology, Vol. 20, pp. 1-5, 1985, which is incorporated herein by this reference.

[2] = test system: Glial cells from a human brain; test: Cellular ATP production in cultivated glial cells (bioluminescence); type: cell-based; settings: NDGA 0.5% w/v in culture
Experimental: Glial cells from a human brain were cultivated by monolayering on Petri dishes. Cellular ATP production was measured using bioluminescent methods (luciferin, luciferase and photomultiplier detection).

[3] = test system: Mitochondria from a human liver; test: Chemiluminescent probe of superoxide and hydroxyl radicals in isolated mitochondria; type: biochemical
Description: Mitrochondria from a human liver were freshly isolated and maintained in a culture environment so that normal respiration and ATP production occurred. Special chemical probes, e.g. luminol-carnitine derivatives, were pipetted into the mitochondria culture media. Uptake of the probes occurred in the mitrochondrial inner membrane where oxygen metabolism and toxic oxygen byproducts are produced. The probes emitted chemiluminescent light in proportion to superoxide (O2^-.) and hydroxyl radicals (.OH). This light was measured by a photomultiplier, and the results were quantified and recorded.

Uppsala mice = Uppsala mice fed lab chow containing 0.5 weight% NDGA, observation of aging and skin wrinkling; type: in vivo
Description: In one aspect of practice of techniques of this invention, the compounds of formula (1) are useful in retarding the aging phenomena of skin wrinkling. In this example, twenty four (24) Uppsala mice were fed standard lab chow (provided by Anticimax of Sodertalje, Sweden) containing 0.5 weight% NDGA ad libitum from the twelfth to thirty-sixth month of their lifespan.
This increased wrinkling is indicative of collagen and elastin hardening and cross-linking via the conversion of imide to amide bonds as discussed above.

[4] = test system: microvascular lipid hydroperoxides; test: Pharmacokinetic time-course (double-blind) study of single oral doses of NDGA, microvascular lipid hydroperoxides; type: in vivo, human
Experimental: Placebos were given to two (2) other volunteers. Using the above referenced non-invasive technique called reflective, near-infrared spectroscopy, changes in the microvascular concentrations of lipid hydroperoxides were monitored during 8 hour test periods. […] Subjects received single doses of NDGA and placebos orally, respectively.

[5] = isolated human liver mitochondria

CC(Cc1ccc(O)c(O)c1)C(C)Cc1ccc(O)c(O)c1 (stereo not drawn) [NDGA, 1,4-bis(3,4-dihydroxyphenyl)-2,3-dimethylbutane]
facial skin and skin unsaturated lipids, damage ([1]; 2% by weight NDGA cream topically on forehead): facial skin and skin unsaturated lipids are preserved, and damage is prevented
return to normal level of lipid hydroperoxides ([1]; 2% by weight NDGA cream topically, after approximately 4 hours): 190 micromole/cm^2
lipid hydroperoxides in skin layers and microvascularization, level decreased to ([1]; 2% by weight NDGA cream, 10 milliliters topically on forehead, after about one hour, from about 190): ~151 micromole/cm^2 skin
steady state ATP production [2]: increase in steady state ATP production was observed
lifespan of the human mitochondria [3, 5]: Increased lifespan of the human mitochondria
toxic oxygen byproducts [3, 5]: significantly reduced toxic oxygen byproducts
steady state light (chemiluminescence of superoxide and hydroxyl radicals) ([3]; luminol-carnitine derivative probes): significantly reduced the steady state light
skin wrinkling, control mice versus NDGA fed mice (Uppsala mice; 0.5 weight% NDGA in chow): greater skin wrinkling in control mice versus NDGA fed mice
visual appearance (youthful and healthy) versus control mice (Uppsala mice; 0.5 weight% NDGA in chow from twelfth month, at 26 months of age): visually more youthful and healthy
NDGA fed mice still living (Uppsala mice; 24 mice at start, 0.5 weight% NDGA in chow, one control mouse of 6 remaining): four
reduction of levels of microvascular lipid hydroperoxides ([4]; oral, single doses 50, 75, 100 and 200 mg, during the 4 to 8 hour study periods): at least 15%
neutralization of toxic byproducts of oxygen metabolism, i.e. lipid hydroperoxides (conclusion) ([4]; when taken at regular intervals of at least 6 hours, 3 times daily): effective neutralizer of toxic byproducts of oxygen metabolism
